Data reported in US8580496B2, “Method and kit for the detection of genes associated with PIK3CA mutation and involved in PI3K/AKT pathway activation in the ER-postitive and HER2-positive subtypes with clinical implications” (Universite Libre de Bruxelles, priority 2008, dated 2013).

What was measured:
breast cancer patients = assay: Clinical outcome of breast cancer patients treated with tamoxifen, by PIK3CA mutated signature; type: in vivo, human
From the text: Primary breast cancer tumour samples from a previously described “tamoxifen-only treated” data set (Loi, 2007; J. Clin Oncol., 25, 1239-46;) were collected for DNA extraction and mutation analysis. The inventors obtained DNA from 173 samples for PIK3CA mutation sequencing and from 131 samples for AKT1 mutation analysis. The median follow-up of these samples was 9.0 yrs (range: 8.2-9.8 yrs), with 45 (28%) distant metastatic events.
Part of the tamoxifen-treated dataset has previously been described (Loi, 2007). Another 77 primary breast cancer samples also treated with tamoxifen monotherapy with corresponding Affymetrix gene expression data was also used for the survival analysis.
The inventors have developed an index called the PIK3CA index that could measure the similarity between the expression profile of any given tumour sample and the PI3K/AKT pathway activation by breast cancers with a PIK3CA mutation.
Statistical analysis was performed using the SPSS statistical software package (SPSS Inc. Chicago, Ill.) version 13.0. […]
Breast cancer molecular subgroups were defined using a previously reported method of WIRAPATI ET AL, 2008, Breast cancer […], 10, R65. The gene expression grade index (GGI) was used as a quantification of the expression of proliferation genes (SOTRIOU ET AL, 2006). […]

[1] = test system: PIK3CA mutant lines including MCF7 and T47D; assay: Sensitivity of breast cancer cell lines to tamoxifen, PIK3CA mutant vs normal lines; type: cell-based

## CC/C(=C(\c1ccccc1)c1ccc(OCCN(C)C)cc1)c1ccccc1 [tamoxifen]
Breast cancer patients; Her2 positive BC patients with the mutated PIK3CA signature vs the other Her2 positive patients
  response to tamoxifen: responded better
Breast cancer patients; luminal B tumours, higher vs lower expression levels of the PIK3CA signature (FIG. 4)
  benefit from tamoxifen (clinical outcome): benefit better
[1]
  sensitivity to tamoxifen: more sensitive
